Experimental data taken from US10925855B2, “Compositions comprising water dispersible nanoparticles of a retinoid compound” (GALDERMA RESEARCH & DEVELOPMENT, priority 2015, dated 2021).

What was measured:
[1] = Stabilizer screening (colloid stability after precipitation); assay type: physicochemical; conditions: Compound A 1.0 mg; for Observation: Stable for: at RT
Protocol: If the colloid solution was stable over 2 hours (no aggregation, sedimentation, crystal forming), and no aggregation occurred, the sample was lyophilized. • If precipitation occurred, however the colloid solution was not stable over the whole solid formulation procedure, other stabilizers were tested. Results

[2] = Chemical stability by HPLC; assay type: physicochemical
Protocol: Chemical stability of nanosized compound A formulae were investigated by HPLC measurements. They were performed in an Agilent 1100 HPLC waters coupled with ZQ2000 MSD, C18, Phenomenex Gemini-NX 3 micron, 100×3 mm column.

## CC(C)(C)c1cc(-c2cc(-c3ccc(C(=O)O)cc3)ccc2OCCO)ccc1N1CCCC1 [Compound A, 3″-tert-butyl-4′-(2-hydroxyethoxy)-4″-pyrrolidin-1-yl[1,1′;3′,1″]-terphenyl-4-carboxylic acid]
[1]; 2 mg PVP40, 1 mL EtOH, 7 mL 0.05 mg/mL BAC solution
  Observation: Aggregated immediately
[1]; 2 mg PVP40, 1 mL EtOH, 7 mL 0.05 mg/mL DSS solution
  Observation: Aggregated immediately
[1]; 2 mg PVP40, 1 mL EtOH, 7 mL 0.05 mg/mL Mannitol solution
  Observation: Aggregated immediately
[1]; 2 mg PVP40, 1 mL EtOH, 7 mL 0.05 mg/mL NaOAc solution
  Observation: Aggregated immediately
[1]; 2 mg PVP40, 1 mL EtOH, 7 mL 0.05 mg/mL SDS solution
  Observation: Aggregated immediately
[1]; 2 mg PVP40, 1 mL EtOH, 7 mL 0.05 mg/mL citric acid solution
  Observation: Aggregated immediately
[1]; 2 mg PVP40, 1 mL EtOH, 7 mL 0.5 mg/mL BAC solution
  Observation: Aggregated immediately
[1]; 2 mg PVP40, 1 mL EtOH, 7 mL 0.5 mg/mL DSS solution
  Observation: Aggregated within: Aggregated within 1 hour
[1]; 2 mg PVP40, 1 mL EtOH, 7 mL 0.5 mg/mL Mannitol solution
  Observation: Aggregated immediately
[1]; 2 mg PVP40, 1 mL EtOH, 7 mL 0.5 mg/mL NaOAc solution
  Observation: Aggregated within: Aggregated within 1 hour
[1]; 2 mg PVP40, 1 mL EtOH, 7 mL 0.5 mg/mL SDS solution
  Observation: Aggregated within: Aggregated within 1 hour
[1]; 2 mg PVP40, 1 mL EtOH, 7 mL 0.5 mg/mL citric acid solution
  Observation: Aggregated immediately
[1]; 2 mg PVP40, 1 mL IPA, 4 mL water
  Observation: Aggregated
[1]; 2 mg PVP40, 1 mL MeOH, 4 mL water
  Observation: Precipitation did not occur
[1]; 2 mg PVPK90, 1 mL EtOH, 4 mL water
  Observation: Colloid, Stable for: Colloid, Stable for 5 min
[1]; 2 mg PVPK90, 1 mL IPA, 4 mL water
  Observation: Aggregated
[1]; 2 mg PVPK90, 1 mL MeOH, 4 mL water
  Observation: Precipitation did not occur
[1]; 2 mg Pluronic PE6800, 1 mL ACE, 4 mL water
  Observation: Aggregated immediately
[1]; 2 mg Pluronic PE6800, 1 mL EtOH, 4 mL water
  Observation: Aggregated
[1]; 2 mg Pluronic PE6800, 1 mL IPA, 4 mL water
  Observation: Aggregated
[1]; 2 mg Pluronic PE6800, 1 mL MeOH, 4 mL water
  Observation: Cloudy immediately
[1]; 2 mg Pluronic PE6800, 1 mL THF, 5 mL water
  Observation: Aggregated
[1]; 2 mg Pluronic PE10500, 1 mL ACE, 4 mL water
  Observation: Aggregated immediately
[1]; 2 mg Pluronic PE10500, 1 mL EtOH, 4 mL water
  Observation: Aggregated
[1]; 2 mg Pluronic PE10500, 1 mL IPA, 4 mL water
  Observation: Aggregated
[1]; 2 mg Pluronic PE10500, 1 mL MeOH, 4 mL water
  Observation: Cloudy immediately
[1]; 2 mg Pluronic PE10500, 1 mL THF, 4 mL water
  Observation: Aggregated
[1]; 2 mg Soluplus, 1 mL ACE, 4 mL water
  Observation: Aggregated within: Aggregated within 5 min
[1]; 2 mg Soluplus, 1 mL EtOH, 4 mL water
  Observation: Slightly opalescent colloid, stable for: stable for 5 min
[1]; 2 mg Soluplus, 1 mL MeOH, 4 mL water
  Observation: Precipitation did not occur
[1]; 2 mg Soluplus, 1 mL THF, 4 mL water
  Observation: Aggregated
[1]; 2 mg Solutol, 1 mL ACE, 4 mL water
  Observation: Aggregated immediately
[1]; 2 mg Solutol, 1 mL EtOH, 4 mL water
  Observation: Aggregated
[1]; 2 mg Solutol, 1 mL IPA, 4 mL water
  Observation: Aggregated
[1]; 2 mg Solutol, 1 mL MeOH, 4 mL water
  Observation: Aggregated
[1]; 2 mg Solutol, 1 mL THF, 4 mL water
  Observation: Aggregated
[1]; 2 mg TPGS, 1 mL ACE, 4 mL water
  Observation: Aggregated within: Aggregated within 5 min
[1]; 2 mg TPGS, 1 mL EtOH, 4 mL water
  Observation: Aggregated
[1]; 2 mg TPGS, 1 mL IPA, 4 mL water
  Observation: Aggregated
[1]; 2 mg TPGS, 1 mL MeOH, 4 mL water
  Observation: Aggregated after: Aggregated after 25 min
[1]; 2 mg TPGS, 1 mL THF, 4 mL water
  Observation: Aggregated
[1]; 2 mg Tetronic, 1 mL ACE, 4 mL water
  Observation: Aggregated immediately
[1]; 2 mg Tetronic, 1 mL EtOH, 4 mL water
  Observation: Aggregated
[1]; 2 mg Tetronic, 1 mL IPA, 4 mL water
  Observation: Aggregated
[1]; 2 mg Tetronic, 1 mL MeOH, 4 mL water
  Observation: Cloudy immediately
[1]; 2 mg Tetronic, 1 mL THF, 4 mL water
  Observation: Aggregated
[1]; 3 mg Luviskol VA64, 1 mL EtOH, 0.0001M NaOH solution
  Observation: Aggregated within: Aggregated within 1 day
[1]; 3 mg Luviskol VA64, 1 mL EtOH, 0.001M NaOH solution
  Observation: Stable for: Stable for 3 days at RT
[1]; 3 mg Luviskol VA64, 1 mL EtOH, 0.01M NaOH solution
  Observation: Stable for: Stable for 3 days at RT
[1]; 3 mg Luviskol VA64, 1 mL EtOH, 0.1M NaOH solution
  Observation: Stable for: Stable for 3 days at RT
[1]; 3 mg Luviskol VA64, 1 mL EtOH, 7 mL 0.05 mg/mL NaOAc solution
  Observation: Aggregated immediately
[1]; 3 mg Luviskol VA64, 1 mL EtOH, 7 mL 0.5 mg/mL NaOAc solution
  Observation: Stable for: Stable for 3 days at RT
[1]; 3 mg PVP10, 1 mL EtOH, 7 mL 0.05 mg/mL NaOAc solution
  Observation: Aggregated immediately
[1]; 3 mg PVP10, 1 mL EtOH, 7 mL 0.5 mg/mL NaOAc solution
  Observation: Aggregated within: Aggregated within 1 hour
[1]; 3 mg PVP40, 1 mL EtOH, 7 mL 0.05 mg/mL NaOAc solution
  Observation: Aggregated immediately
[1]; 3 mg PVP40, 1 mL EtOH, 7 mL 0.5 mg/mL NaOAc solution
  Observation: Stable for: Stable for 1 day at RT
[1]; 4 mg Luviskol VA64, 1 mL EtOH, 7 mL 0.05 mg/mL NaOAc solution
  Observation: Aggregated immediately
[1]; 4 mg Luviskol VA64, 1 mL EtOH, 7 mL 0.5 mg/mL NaOAc solution
  Observation: Aggregated within: Aggregated within 1 day
[1]; 4 mg PVP10, 1 mL EtOH, 7 mL 0.05 mg/mL NaOAc solution
  Observation: Aggregated immediately
[1]; 4 mg PVP10, 1 mL EtOH, 7 mL 0.5 mg/mL NaOAc solution
  Observation: Aggregated within: Aggregated within 1 hour
[1]; 4 mg PVP40, 1 mL EtOH, 7 mL 0.05 mg/mL NaOAc solution
  Observation: Aggregated immediately
[1]; 4 mg PVP40, 1 mL EtOH, 7 mL 0.5 mg/mL NaOAc solution
  Observation: Aggregated within: Aggregated within 1 day
[1]; no stabilizer (—), 1 mL ACE, 4 mL water
  Observation: Aggregated
[1]; no stabilizer (—), 1 mL EtOH, 4 mL water
  Observation: Aggregated
[1]; no stabilizer (—), 1 mL IPA, 4 mL water
  Observation: Aggregated
[1]; no stabilizer (—), 1 mL MeOH, 4 mL water
  Observation: Aggregated
[2]; 0.001 M sodium hydroxide solution as antisolvent
  decomposition of the active ingredient in HPLC analysis: decomposition of the active could not be observed
[2]; 0.01 M sodium hydroxide solution as antisolvent
  decomposition of the active ingredient in HPLC analysis: decomposition of the active could not be observed
[2]; 0.1 M sodium hydroxide used as antisolvent (data not shown)
  decomposition of the active ingredient in HPLC analysis: Significant decomposition
